pIC50: −log10 of the molar value.
What was measured:
[1] = target: JH2 domain of human Tyk2 (Homo sapiens (Human), UniProt P29597); test: JH2 Biochemical Assay (TR-FRET probe displacement); format: binding; details: TR-FRET probe displacement, JH2 domain
[2] = target: Tyk2 (Homo sapiens (Human), UniProt P29597); test: pSTAT4 Cell Assay (MSD, NK92 cells); format: cell-based
Chain of Tyk2 (P29597 whole entry): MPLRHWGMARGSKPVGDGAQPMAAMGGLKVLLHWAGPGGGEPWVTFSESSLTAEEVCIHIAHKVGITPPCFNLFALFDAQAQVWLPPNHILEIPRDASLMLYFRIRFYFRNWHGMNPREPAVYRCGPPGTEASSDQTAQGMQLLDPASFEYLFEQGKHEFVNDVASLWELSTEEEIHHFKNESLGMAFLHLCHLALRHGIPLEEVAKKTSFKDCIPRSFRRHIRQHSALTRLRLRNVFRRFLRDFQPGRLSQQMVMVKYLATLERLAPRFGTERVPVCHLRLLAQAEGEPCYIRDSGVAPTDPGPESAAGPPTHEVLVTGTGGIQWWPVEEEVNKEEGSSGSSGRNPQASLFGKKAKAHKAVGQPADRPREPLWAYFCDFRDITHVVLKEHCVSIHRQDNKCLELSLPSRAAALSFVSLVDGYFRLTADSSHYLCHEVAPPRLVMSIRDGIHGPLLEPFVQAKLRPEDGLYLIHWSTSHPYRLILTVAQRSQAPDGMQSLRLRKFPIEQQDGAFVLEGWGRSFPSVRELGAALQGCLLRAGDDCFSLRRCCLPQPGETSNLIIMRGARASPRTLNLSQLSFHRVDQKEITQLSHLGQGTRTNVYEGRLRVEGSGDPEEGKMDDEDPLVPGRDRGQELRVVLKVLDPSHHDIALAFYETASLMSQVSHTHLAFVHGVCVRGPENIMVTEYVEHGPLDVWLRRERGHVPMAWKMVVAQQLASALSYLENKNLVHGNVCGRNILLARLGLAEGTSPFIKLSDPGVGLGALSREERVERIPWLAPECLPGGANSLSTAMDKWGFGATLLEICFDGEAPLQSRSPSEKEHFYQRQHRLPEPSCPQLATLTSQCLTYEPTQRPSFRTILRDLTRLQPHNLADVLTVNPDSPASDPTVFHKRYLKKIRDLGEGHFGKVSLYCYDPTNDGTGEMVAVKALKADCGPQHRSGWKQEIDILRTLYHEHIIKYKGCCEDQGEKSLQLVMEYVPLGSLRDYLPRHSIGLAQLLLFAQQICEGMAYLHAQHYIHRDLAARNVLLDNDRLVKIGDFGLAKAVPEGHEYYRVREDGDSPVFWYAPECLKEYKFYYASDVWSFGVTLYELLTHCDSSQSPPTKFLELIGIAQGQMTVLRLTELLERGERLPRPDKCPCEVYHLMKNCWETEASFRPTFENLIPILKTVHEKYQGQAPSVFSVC

Chain of JH2 domain of human Tyk2 (P29597 575-876): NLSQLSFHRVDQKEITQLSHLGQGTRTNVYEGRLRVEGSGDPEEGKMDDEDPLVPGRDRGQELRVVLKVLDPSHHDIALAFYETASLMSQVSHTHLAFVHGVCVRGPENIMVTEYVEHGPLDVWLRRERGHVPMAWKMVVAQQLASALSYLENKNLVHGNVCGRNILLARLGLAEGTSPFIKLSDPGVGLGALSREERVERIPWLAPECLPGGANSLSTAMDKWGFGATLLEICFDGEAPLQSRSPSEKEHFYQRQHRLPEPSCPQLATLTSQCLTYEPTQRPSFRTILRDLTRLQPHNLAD

SMILES | pIC50 [1] | pIC50 [2]
COCCc1cnn(-c2cnc(NC(C)=O)cc2Nc2cc(C)nc(C(C)(F)F)n2)c1 [Example 764, N-(4-((2-(1,1-difluoroethyl)-6-methylpyrimidin-4-yl)amino)-5-(4-(2-methoxyethyl)-1H-pyrazol-1-yl)pyridin-2-yl)acetamide] | ≥ 8.00 | 7.00 to 8.00
COCc1cnn(-c2cnc(NC(C)=O)cc2Nc2cc(C)nc(C(C)(F)F)n2)c1 [Example 765, N-(4-((2-(1,1-difluoroethyl)-6-methylpyrimidin-4-yl)amino)-5-(4-(methoxymethyl)-1H-pyrazol-1-yl)pyridin-2-yl)acetamide] | ≥ 8.00 | 7.00 to 8.00
CC(=O)Nc1cc(Nc2ccnc(C(C)(F)F)n2)c(-c2cncc(C#N)n2)cn1 [Example 766, N-(5-(6-cyanopyrazin-2-yl)-4-((2-(1,1-difluoroethyl)pyrimidin-4-yl)amino)pyridin-2-yl)acetamide] | ≥ 8.00 | 6.00 to 7.00
CC(=O)Nc1cc(Nc2ccnc(C(C)(F)F)n2)c(-c2cc(OC(F)F)ncn2)cn1 [Example 767, N-(4-((2-(1,1-difluoroethyl)pyrimidin-4-yl)amino)-5-(6-(difluoromethoxy)pyrimidin-4-yl)pyridin-2-yl)acetamide] | ≥ 8.00 | 7.00 to 8.00
CC(=O)Nc1cc(Nc2cc(C)nc(C(C)(F)F)n2)c(-c2cn3c(n2)CCC3)cn1 [Example 769, N-(4-((2-(1,1-difluoroethyl)-6-methylpyrimidin-4-yl)amino)-5-(6,7-dihydrO5H-pyrrolo[1,2-a]imidazol-2-yl)pyridin-2-yl)acetamide] | ≥ 8.00 | ≥ 8.00
CC(=O)Nc1cc(Nc2cc(C)nc(C(C)(F)F)n2)c(-c2cn3c(n2)OCC3)cn1 [Example 770, N-(4-((2-(1,1-difluoroethyl)-6-methylpyrimidin-4-yl)amino)-5-(2,3-dihydroimidazo[2,1-b]oxazol-6-yl)pyridin-2-yl)acetamide] | ≥ 8.00 | ≥ 8.00
CC(=O)Nc1cc(Nc2cc(C)nc(C(C)(F)F)n2)c(-c2csc(N3CCN(C)CC3)n2)cn1 [Example 771, N-(4-((2-(1,1-difluoroethyl)-6-methylpyrimidin-4-yl)amino)-5-(2-(4-methylpiperazin-1-yl)thiazol-4-yl)pyridin-2-yl)acetamide] | ≥ 8.00 | ≥ 8.00
COCCN(C)c1nc(-c2cnc(NC(C)=O)cc2Nc2cc(C)nc(C(C)(F)F)n2)cs1 [Example 772, N-(4-((2-(1,1-difluoroethyl)-6-methylpyrimidin-4-yl)amino)-5-(2-((2-methoxyethyl)(methyl)amino)thiazol-4-yl)pyridin-2-yl)acetamide] | ≥ 8.00 | ≥ 8.00
COCCN(C)c1nnc(-c2cnc(NC(C)=O)cc2Nc2ccnc(C(C)(F)F)n2)s1 [Example 773, N-(4-((2-(1,1-difluoroethyl)pyrimidin-4-yl)amino)-5-(5-((2-methoxyethyl)(methyl)amino)-1,3,4-thiadiazol-2-yl)pyridin-2-yl)acetamide] | ≥ 8.00 | ≥ 8.00
CC(=O)Nc1cc(Nc2ccnc(C(C)(F)F)n2)c(-c2nnc(N3CCN(C)CC3)s2)cn1 [Example 774, N-(4-((2-(1,1-difluoroethyl)pyrimidin-4-yl)amino)-5-(5-(4-methylpiperazin-1-yl)-1,3,4-thiadiazol-2-yl)pyridin-2-yl)acetamide] | ≥ 8.00 | ≥ 8.00
COCCOc1ccnc(-c2cnc(NC(C)=O)cc2Nc2cc(C)nc(C(C)(F)F)n2)n1 [Example 777, N-(4-((2-(1,1-difluoroethyl)-6-methylpyrimidin-4-yl)amino)-5-(4-(2-methoxyethoxy)pyrimidin-2-yl)pyridin-2-yl)acetamide] | 7.00 to 8.00 | ≤ 6.00
CC(=O)Nc1cc(Nc2ccnc(C(C)(F)F)n2)c(-c2cnn(CCN3CCOCC3)n2)cn1 [Example 778, N-(4-((2-(1,1-difluoroethyl)pyrimidin-4-yl)amino)-5-(2-(2-morpholinoethyl)-2H-1,2,3-triazol-4-yl)pyridin-2-yl)acetamide] | ≥ 8.00 | 7.00 to 8.00
CC(=O)Nc1cc(Nc2ccnc(C(C)(F)F)n2)c(-c2cnn(CCN3CCN(C)CC3)n2)cn1 [Example 779, N-(4-((2-(1,1-difluoroethyl)pyrimidin-4-yl)amino)-5-(2-(2-(4-methylpiperazin-1-yl)ethyl)-2H-1,2,3-triazol-4-yl)pyridin-2-yl)acetamide] | ≥ 8.00 | 7.00 to 8.00
COCc1cnc(-c2cnc(NC(C)=O)cc2Nc2ccnc(C(C)(F)F)n2)s1 [Example 781, N-(4-((2-(1,1-difluoroethyl)pyrimidin-4-yl)amino)-5-(5-(methoxymethyl)thiazol-2-yl)pyridin-2-yl)acetamide] | ≥ 8.00 | ≥ 8.00
CC(=O)Nc1cc(Nc2ccnc(C(C)(F)F)n2)c(-c2ncc(CN(C)C)s2)cn1 [Example 782, N-(4-((2-(1,1-difluoroethyl)pyrimidin-4-yl)amino)-5-(5-((dimethylamino)methyl)thiazol-2-yl)pyridin-2-yl)acetamide] | ≥ 8.00 | ≥ 8.00
CC(=O)Nc1cc(Nc2cc(C)nc(C(C)(F)F)n2)c(-c2ncc(CN3CCN(C)CC3)s2)cn1 [Example 783, N-(4-((2-(1,1-difluoroethyl)-6-methylpyrimidin-4-yl)amino)-5-(5-((4-methylpiperazin-1-yl)methyl)thiazol-2-yl)pyridin-2-yl)acetamide] | ≥ 8.00 | ≥ 8.00
CC(=O)Nc1cc(Nc2cc(C)nc(C(C)(F)F)n2)c(-c2nc(CN(C)C)cs2)cn1 [Example 784, N-(4-((2-(1,1-difluoroethyl)-6-methylpyrimidin-4-yl)amino)-5-(4-((dimethylamino)methyl)thiazol-2-yl)pyridin-2-yl)acetamide] | ≥ 8.00 | ≥ 8.00
CC(=O)Nc1cc(Nc2cc(C)nc(C(C)(F)F)n2)c(-c2csc(CN(C)C)n2)cn1 [Example 786, N-(4-((2-(1,1-difluoroethyl)-6-methylpyrimidin-4-yl)amino)-5-(2-((dimethylamino)methyl)thiazol-4-yl)pyridin-2-yl)acetamide] | ≥ 8.00 | ≥ 8.00
CC(=O)Nc1cc(Nc2cc(C)nc(C(C)(F)F)n2)c(-c2csc(CN3CCN(C)CC3)n2)cn1 [Example 787, N-(4-((2-(1,1-difluoroethyl)-6-methylpyrimidin-4-yl)amino)-5-(2-((4-methylpiperazin-1-yl)methyl)thiazol-4-yl)pyridin-2-yl)acetamide] | ≥ 8.00 | ≥ 8.00
CC(=O)Nc1cc(Nc2ccnc(C(C)(F)F)n2)c(-c2csc(N3CC4(COC4)C3)n2)cn1 [Example 789, N-(5-(2-(2-oxa-6-azaspiro[3.3]heptan-6-yl)thiazol-4-yl)-4-((2-(1,1-difluoroethyl)pyrimidin-4-yl)amino)pyridin-2-yl)acetamide] | ≥ 8.00 | ≥ 8.00
CC(=O)Nc1cc(Nc2ccnc(C(C)(F)F)n2)c(-c2csc(C#N)n2)cn1 [Example 790, N-(5-(2-cyanothiazol-4-yl)-4-((2-(1,1-difluoroethyl)pyrimidin-4-yl)amino)pyridin-2-yl)acetamide] | ≥ 8.00 | ≥ 8.00
CC(=O)Nc1cc(Nc2cc(C)nc(C(C)(F)F)n2)c(-c2cnc(CN3CCCC3)cn2)cn1 [Example 791, N-(4-((2-(1,1-difluoroethyl)-6-methylpyrimidin-4-yl)amino)-5-(5-(pyrrolidin-1-ylmethyl)pyrazin-2-yl)pyridin-2-yl)acetamide] | ≥ 8.00 | ≥ 8.00
CC(=O)Nc1cc(Nc2cc(C)nc(C(C)(F)F)n2)c(-c2cnc(CN3CCN(C)CC3)cn2)cn1 [Example 792, N-(4-((2-(1,1-difluoroethyl)-6-methylpyrimidin-4-yl)amino)-5-(5-((4-methylpiperazin-1-yl)methyl)pyrazin-2-yl)pyridin-2-yl)acetamide] | ≥ 8.00 | 7.00 to 8.00
CC(=O)Nc1cc(Nc2cc(C)nc(C(C)(F)F)n2)c(-c2cnc(CN3CCOCC3)cn2)cn1 [Example 793, N-(4-((2-(1,1-difluoroethyl)-6-methylpyrimidin-4-yl)amino)-5-(5-(morpholinomethyl)pyrazin-2-yl)pyridin-2-yl)acetamide] | ≥ 8.00 | ≥ 8.00
CNC(=O)Nc1cc(Nc2ccnc(C(C)(F)F)n2)c(-c2cc3n(n2)CCN(C)C3)cn1 [Example 794, 1-(4-((2-(1,1-difluoroethyl)pyrimidin-4-yl)amino)-5-(5-methyl-4,5,6,7-tetrahydropyrazolo[1,5-a]pyrazin-2-yl)pyridin-2-yl)-3-methylurea] | ≥ 8.00 | ≥ 8.00
CNC(=O)Nc1cc(Nc2ccnc(C(C)(F)F)n2)c(-c2nc3c(s2)CN(C)CC3)cn1 [Example 795, 1-(4-((2-(1,1-difluoroethyl)pyrimidin-4-yl)amino)-5-(5-methyl-4,5,6,7-tetrahydrothiazolo[5,4-c]pyridin-2-yl)pyridin-2-yl)-3-methylurea] | ≥ 8.00 | ≥ 8.00
CC(=O)Nc1cc(Nc2ccnc(C(C)(F)F)n2)c(-c2nc3c(s2)CCN(C)C3)cn1 [Example 797, N-(4-((2-(1,1-difluoroethyl)pyrimidin-4-yl)amino)-5-(5-methyl-4,5,6,7-tetrahydrothiazolo[4,5-c]pyridin-2-yl)pyridin-2-yl)acetamide] | ≥ 8.00 | ≥ 8.00
CCc1cc(Nc2cc(NC(C)=O)ncc2-c2ccncn2)nc(C(C)(C)F)n1 [Example 801, N-(4-((6-ethyl-2-(2-fluoropropan-2-yl)pyrimidin-4-yl)amino)-5-(pyrimidin-4-yl)pyridin-2-yl)acetamide] | ≥ 8.00 | ≥ 8.00
CC(=O)Nc1cc(Nc2cc(C)nc(C(C)(F)F)n2)c(-c2cc(C(C)(C)N(C)C)n(C)n2)cn1 [Example 802, N-(4-((2-(1,1-difluoroethyl)-6-methylpyrimidin-4-yl)amino)-5-(5-(2-(dimethylamino)propan-2-yl)-1-methyl-1H-pyrazol-3-yl)pyridin-2-yl)acetamide] | ≥ 8.00 | ≥ 8.00

— patent publication US20260028365A1 (BIOGEN MA INC., priority 2022, published 2026)
